Laboratory results reported in ChEMBL document CHEMBL4138123, “Design, synthesis and biological evaluation of novel pyrazolochalcones as potential modulators of PI3K/Akt/mTOR pathway and inducers of apoptosis in breast cancer cells” (Eur J Med Chem, 2017).

Key:
SK-OV-3 = assay: Cytotoxicity against human SKOV3 cells assessed as cell growth at 1 uM after 48 hrs by sulforhodamine B assay relative to control; type: functional; settings: SK-OV-3, 48 h, read-out: Activity
NCI-H322M = assay: Cytotoxicity against human NCI-H322M cells assessed as growth inhibition after 48 hrs by sulforhodamine B assay; type: functional
OVCAR-8 = assay: Cytotoxicity against human OVCAR8 cells assessed as cell growth at 100 uM after 48 hrs by sulforhodamine B assay relative to control; type: functional; settings: OVCAR-8, 48 h, read-out: Activity
SK-MEL-5 = assay: Cytotoxicity against human SK-MEL-5 cells assessed as cell growth at 10 uM after 48 hrs by sulforhodamine B assay relative to control; type: functional; settings: SK-MEL-5, 48 h, read-out: Activity
K562 [1] = assay: Cytotoxicity against human K562 cells assessed as cell growth at 100 uM after 48 hrs by sulforhodamine B assay relative to control; type: functional; settings: K562, 48 h, read-out: Activity
HCT-15 = assay: Cytotoxicity against human HCT15 cells assessed as growth inhibition after 48 hrs by sulforhodamine B assay; type: functional; settings: HCT-15, 48 h
RXF 393 = assay: Cytotoxicity against human RXF393 cells assessed as cell growth at 10 uM after 48 hrs by sulforhodamine B assay relative to control; type: functional; settings: RXF 393, 48 h, read-out: Activity
SNB-19 = assay: Cytotoxicity against human SNB19 cells assessed as cell growth at 1 uM after 48 hrs by sulforhodamine B assay relative to control; type: functional; settings: SNB-19, 48 h, read-out: Activity
NCI-H23 [2] = assay: Cytotoxicity against human NCI-H23 cells assessed as cell growth at 1 uM after 48 hrs by sulforhodamine B assay relative to control; type: functional; settings: NCI-H23, 48 h, read-out: Activity
A549 = assay: Cytotoxicity against human A549/ATCC cells assessed as cell growth at 10 uM after 48 hrs by sulforhodamine B assay relative to control; type: functional; settings: A549, 48 h, read-out: Activity
MDA-MB-231 [3] = assay: Cytotoxicity against human MDA-MB-231 cells assessed as growth inhibition after 48 hrs by MTT assay; type: functional, cell-based; settings: MDA-MB-231, 48 h
MDA-MB-435 = assay: Cytotoxicity against human MDA-MB-435 cells assessed as growth inhibition after 48 hrs by sulforhodamine B assay; type: functional; settings: MDA-MB-435, 48 h
SF-268 [4] = assay: Cytotoxicity against human SF268 cells assessed as cell growth at 0.1 uM after 48 hrs by sulforhodamine B assay relative to control; type: functional; settings: SF-268, 48 h, read-out: Activity
MOLT-4 [5] = assay: Cytotoxicity against human MOLT4 cells assessed as cell growth at 100 uM after 48 hrs by sulforhodamine B assay relative to control; type: functional; settings: MOLT-4, 48 h, read-out: Activity
NCI-H23 [6] = assay: Cytotoxicity against human NCI-H23 cells assessed as cell growth at 100 uM after 48 hrs by sulforhodamine B assay relative to control; type: functional; settings: NCI-H23, 48 h, read-out: Activity
OVCAR-4 = assay: Cytotoxicity against human OVCAR4 cells assessed as cell growth at 10 uM after 48 hrs by sulforhodamine B assay relative to control; type: functional; settings: OVCAR-4, 48 h, read-out: Activity
MDA-MB-231 [7] = assay: Cytotoxicity against human MDA-MB-231 cells assessed as cell growth at 0.1 uM after 48 hrs by sulforhodamine B assay relative to control; type: functional; settings: MDA-MB-231, 48 h, read-out: Activity
HL-60(TB) = assay: Cytotoxicity against human HL-60(TB) cells assessed as cell growth at 10 uM after 48 hrs by sulforhodamine B assay relative to control; type: functional; settings: HL-60, 48 h, read-out: Activity
KM12 = assay: Cytotoxicity against human KM12 cells assessed as cell growth at 100 uM after 48 hrs by sulforhodamine B assay relative to control; type: functional; settings: KM12, 48 h, read-out: Activity
MOLT-4 [8] = assay: Cytotoxicity against human MOLT4 cells assessed as cell growth at 10 uM after 48 hrs by sulforhodamine B assay relative to control; type: functional; settings: MOLT-4, 48 h, read-out: Activity
786-0 = assay: Cytotoxicity against human 786-0 cells assessed as cell growth at 100 uM after 48 hrs by sulforhodamine B assay relative to control; type: functional; settings: 786-0, 48 h, read-out: Activity
Malme-3M = assay: Cytotoxicity against human MALME-3M cells assessed as cell growth at 1 uM after 48 hrs by sulforhodamine B assay relative to control; type: functional; settings: read-out: Activity
T47D = assay: Cytotoxicity against human T47D cells assessed as cell growth at 100 uM after 48 hrs by sulforhodamine B assay relative to control; type: functional; settings: read-out: Activity
OVCAR-5 = assay: Cytotoxicity against human OVCAR5 cells assessed as cell growth at 100 uM after 48 hrs by sulforhodamine B assay relative to control; type: functional; settings: OVCAR-5, 48 h, read-out: Activity
COLO 205 = assay: Cytotoxicity against human COLO205 cells assessed as cell growth at 0.1 uM after 48 hrs by sulforhodamine B assay relative to control; type: functional; settings: COLO 205, 48 h, read-out: Activity
SW-620 = assay: Cytotoxicity against human SW620 cells assessed as growth inhibition after 48 hrs by sulforhodamine B assay; type: functional; settings: SW-620, 48 h
M14 [9] = assay: Cytotoxicity against human M14 cells assessed as cell growth at 0.01 uM after 48 hrs by sulforhodamine B assay relative to control; type: functional; settings: M14, 48 h, read-out: Activity
K562 [10] = assay: Cytotoxicity against human K562 cells assessed as cell growth at 1 uM after 48 hrs by sulforhodamine B assay relative to control; type: functional; settings: K562, 48 h, read-out: Activity
NCI-H522 = assay: Cytotoxicity against human NCI-H522 cells assessed as cell growth at 100 uM after 48 hrs by sulforhodamine B assay relative to control; type: functional; settings: NCI-H522, 48 h, read-out: Activity
TK-10 = assay: Cytotoxicity against human TK10 cells assessed as cell growth at 100 uM after 48 hrs by sulforhodamine B assay relative to control; type: functional; settings: TK-10, 48 h, read-out: Activity
M14 [11] = assay: Cytotoxicity against human M14 cells assessed as cell growth at 100 uM after 48 hrs by sulforhodamine B assay relative to control; type: functional; settings: M14, 48 h, read-out: Activity
HCC 2998 [12] = assay: Cytotoxicity against human HCC2998 cells assessed as growth inhibition after 48 hrs by sulforhodamine B assay; type: functional; settings: HCC 2998, 48 h
SF-268 [13] = assay: Cytotoxicity against human SF268 cells assessed as cell growth at 10 uM after 48 hrs by sulforhodamine B assay relative to control; type: functional; settings: SF-268, 48 h, read-out: Activity
M14 [14] = assay: Cytotoxicity against human M14 cells assessed as cell growth at 0.1 uM after 48 hrs by sulforhodamine B assay relative to control; type: functional; settings: M14, 48 h, read-out: Activity
HCC 2998 [15] = assay: Cytotoxicity against human HCC2998 cells assessed as cell growth at 0.1 uM after 48 hrs by sulforhodamine B assay relative to control; type: functional; settings: HCC 2998, 48 h, read-out: Activity
SR = assay: Cytotoxicity against human SR cells assessed as cell growth at 1 uM after 48 hrs by sulforhodamine B assay relative to control; type: functional; settings: read-out: Activity

`COc1cc(C(=O)/C=C/c2cc(-c3ccc4c(c3)OCO4)n[nH]2)cc(OC)c1OC` gave a growth at 1 µM (SK-OV-3) of 107%, a GI50 (NCI-H322M) of 2.09 µM and a TGI (NCI-H322M) of 6.25 µM. For the same compound, the CC50 (NCI-H322M; read-out: LC50 (the source's name)) was 24.3 µM, the growth at 100 µM (OVCAR-8) was -92% and the growth at 10 µM (SK-MEL-5) was 14%. It also gave a growth at 100 µM (K562 [1]) of 5%, a GI50 (HCT-15) of 1.95 µM and an LC50 (HCT-15) greater than 100 µM. The TGI (HCT-15) was 6.75 µM, the growth at 10 µM (RXF 393) was -76% and the growth at 1 µM (SNB-19) was 75%. For the same compound, the growth at 1 µM (NCI-H23 [2]) was 92%, the growth at 10 µM (A549) was -22% and the IC50 (MDA-MB-231 [3]) was 1.2 µM. It also gave a GI50 (MDA-MB-435) of 2.28 µM, an LC50 (MDA-MB-435) of 22.5 µM and a TGI (MDA-MB-435) of 5.8 µM. For the same compound, the growth at 0.1 µM (SF-268 [4]) was 96%, the growth at 100 µM (MOLT-4 [5]) was -13% and the growth at 100 µM (NCI-H23 [6]) was -83%. The growth at 10 µM (OVCAR-4) was -28%, the growth at 0.1 µM (MDA-MB-231 [7]) was 98% and the growth at 10 µM (HL-60(TB)) was -20%. The growth at 100 µM (KM12) was -79%, the growth at 10 µM (MOLT-4 [8]) was -8% and the growth at 100 µM (786-0) was -83%. The growth at 1 µM (Malme-3M) was 83%, the growth at 100 µM (T47D) was -87% and the growth at 100 µM (OVCAR-5) was -56%. For the same compound, the growth at 0.1 µM (COLO 205) was 98%, the GI50 (SW-620) was 1.62 µM and the LC50 (lethal concentration, 50% net cell kill) (SW-620) was 8.9 µM. For the same compound, the TGI (SW-620) was 3.8 µM, the growth at 0.01 µM (M14 [9]) was 98% and the growth at 1 µM (K562 [10]) was 74%. The growth at 100 µM (NCI-H522) was -94%, the growth at 100 µM (TK-10) was -96% and the growth at 100 µM (M14 [11]) was -84%. The GI50 (HCC 2998 [12]) was 2.02 µM, the LC50 (HCC 2998 [12]) was 8.23 µM and the TGI (HCC 2998 [12]) was 4.07 µM. It also gave a growth at 10 µM (SF-268 [13]) of -12%, a growth at 0.1 µM (M14 [14]) of 93% and a growth at 0.1 µM (HCC 2998 [15]) of 100%. The growth at 1 µM (SR) was 56%.
